From PubChem BioAssay (NCI)
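Where inhibition never reached the appropriate level, the endpoint shown equals the highest concentration tested. Otherwise, values were interpolated linearly from a five-concentration, 48-hour dose response in 96-well plates. GI50 = concentration required for 50% inhibition of growth. TGI denotes the concentration required for complete inhibition of growth.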

Assays:
Test in all cases: inhibition of tumour cell growth, NCI panel, 48 h
786-0 renal = system: 786-0 renal
A498 renal = system: A498 renal
A549 NSCLC = system: A549 NSCLC
ACHN renal = system: ACHN renal
BT-549 breast = system: BT-549 breast
CAKI-1 renal = system: CAKI-1 renal
CCRF-CEM leukemia = system: CCRF-CEM leukemia
COLO 205 colon = system: COLO 205 colon
DU-145 prostate = system: DU-145 prostate
EKVX NSCLC = system: EKVX NSCLC
HCC-2998 colon = system: HCC-2998 colon
HCT-116 colon = system: HCT-116 colon
HCT-15 colon = system: HCT-15 colon
HL-60(TB) leukemia = system: HL-60(TB) leukemia
HOP-62 NSCLC = system: HOP-62 NSCLC
HS 578T breast = system: HS 578T breast
HT29 colon = system: HT29 colon
IGROV1 ovarian = system: IGROV1 ovarian
K-562 leukemia = system: K-562 leukemia
KM12 colon = system: KM12 colon
LOX IMVI melanoma = system: LOX IMVI melanoma
MALME-3M melanoma = system: MALME-3M melanoma
MCF7 breast = system: MCF7 breast
MDA-MB-231 breast = system: MDA-MB-231 breast
MDA-MB-435 = system: MDA-MB-435
MOLT-4 leukemia = system: MOLT-4 leukemia
NCI-H226 lung = system: NCI-H226 lung
NCI-H23 lung = system: NCI-H23 lung
NCI-H460 lung = system: NCI-H460 lung
NCI-H522 lung = system: NCI-H522 lung
NCI/ADR-RES ovarian = system: NCI/ADR-RES ovarian
OVCAR-3 ovarian = system: OVCAR-3 ovarian
OVCAR-4 ovarian = system: OVCAR-4 ovarian
OVCAR-5 ovarian = system: OVCAR-5 ovarian
OVCAR-8 ovarian = system: OVCAR-8 ovarian
PC-3 prostate = system: PC-3 prostate
RPMI-8226 leukemia = system: RPMI-8226 leukemia
RXF 393 renal = system: RXF 393 renal
SF-268 CNS = system: SF-268 CNS
SF-295 CNS = system: SF-295 CNS
SF-539 CNS = system: SF-539 CNS
SK-MEL-2 melanoma = system: SK-MEL-2 melanoma
SK-MEL-28 melanoma = system: SK-MEL-28 melanoma
SK-MEL-5 melanoma = system: SK-MEL-5 melanoma
SK-OV-3 ovarian = system: SK-OV-3 ovarian
SN12C renal = system: SN12C renal
SNB-19 CNS = system: SNB-19 CNS
SNB-75 CNS = system: SNB-75 CNS
SR leukemia = system: SR leukemia
SW-620 colon = system: SW-620 colon
T-47D breast = system: T-47D breast
TK-10 renal = system: TK-10 renal
U251 CNS = system: U251 CNS
UACC-257 melanoma = system: UACC-257 melanoma
UACC-62 melanoma = system: UACC-62 melanoma
UO-31 renal = system: UO-31 renal

`C#Cc1cccc(NC(=O)Nc2ccc(NC(=O)CCl)cc2)c1` was tested, and the GI50 (786-0 renal) was 12.5 µM, the TGI (786-0 renal) was 23.7 µM and the GI50 (A498 renal) was over 82.5 µM. For the same compound, the TGI (A498 renal) was over 82.5 µM, the GI50 (A549 NSCLC) was over 82.5 µM and the TGI (A549 NSCLC) was over 82.5 µM. The GI50 (ACHN renal) was 14 µM, the TGI (ACHN renal) was 26 µM and the GI50 (BT-549 breast) was 11.9 µM. The TGI (BT-549 breast) was 24.1 µM, the GI50 (CAKI-1 renal) was 15.7 µM and the TGI (CAKI-1 renal) was 36.2 µM. It also gave a GI50 (CCRF-CEM leukemia) of 9.55 µM, a TGI (CCRF-CEM leukemia) of 26.9 µM and a GI50 (COLO 205 colon) of 20.5 µM. For the same compound, the TGI (COLO 205 colon) was 60.3 µM, the GI50 (DU-145 prostate) was 32.7 µM and the TGI (DU-145 prostate) was over 82.5 µM. It also gave a GI50 (EKVX NSCLC) of over 82.5 µM, a TGI (EKVX NSCLC) of over 82.5 µM and a GI50 (HCC-2998 colon) of 52.5 µM. For the same compound, the TGI (HCC-2998 colon) was over 82.5 µM, the GI50 (HCT-116 colon) was 20.1 µM and the TGI (HCT-116 colon) was over 82.5 µM. For the same compound, the GI50 (HCT-15 colon) was 15.4 µM, the TGI (HCT-15 colon) was 36.3 µM and the GI50 (HL-60(TB) leukemia) was 14.9 µM. It also gave a TGI (HL-60(TB) leukemia) of 33.4 µM, a GI50 (HOP-62 NSCLC) of 19 µM and a TGI (HOP-62 NSCLC) of over 82.5 µM. The GI50 (HS 578T breast) was 17.8 µM, the TGI (HS 578T breast) was 81.7 µM and the GI50 (HT29 colon) was 14.8 µM. The TGI (HT29 colon) was 36.3 µM, the GI50 (IGROV1 ovarian) was 12.1 µM and the TGI (IGROV1 ovarian) was 25.5 µM. For the same compound, the GI50 (K-562 leukemia) was 15.5 µM, the TGI (K-562 leukemia) was 53.9 µM and the GI50 (KM12 colon) was 18.9 µM. It also gave a TGI (KM12 colon) of 63.8 µM, a GI50 (LOX IMVI melanoma) of 1.57 µM and a TGI (LOX IMVI melanoma) of 3.19 µM. It also gave a GI50 (MALME-3M melanoma) of 12.1 µM, a TGI (MALME-3M melanoma) of 23.9 µM and a GI50 (MCF7 breast) of 27.8 µM. The TGI (MCF7 breast) was over 82.5 µM, the GI50 (MDA-MB-231 breast) was 14.8 µM and the TGI (MDA-MB-231 breast) was 34 µM. For the same compound, the GI50 (MDA-MB-435) was 22.1 µM, the TGI (MDA-MB-435) was over 82.5 µM and the GI50 (MOLT-4 leukemia) was 9.6 µM. It also gave a TGI (MOLT-4 leukemia) of 33.2 µM, a GI50 (NCI-H226 lung) of 22.4 µM and a TGI (NCI-H226 lung) of 73.9 µM. It also gave a GI50 (NCI-H23 lung) of 15.4 µM, a TGI (NCI-H23 lung) of 36 µM and a GI50 (NCI-H460 lung) of 22 µM. The TGI (NCI-H460 lung) was over 82.5 µM, the GI50 (NCI-H522 lung) was 12.2 µM and the TGI (NCI-H522 lung) was 29.3 µM. It also gave a GI50 (NCI/ADR-RES ovarian) of 23.3 µM, a TGI (NCI/ADR-RES ovarian) of 70 µM and a GI50 (OVCAR-3 ovarian) of 12.1 µM. It also gave a TGI (OVCAR-3 ovarian) of 25.5 µM, a GI50 (OVCAR-4 ovarian) of 12.2 µM and a TGI (OVCAR-4 ovarian) of 28.6 µM. It also gave a GI50 (OVCAR-5 ovarian) of 14.3 µM, a TGI (OVCAR-5 ovarian) of 28.2 µM and a GI50 (OVCAR-8 ovarian) of 22.5 µM. It also gave a TGI (OVCAR-8 ovarian) of over 82.5 µM, a GI50 (PC-3 prostate) of 17.1 µM and a TGI (PC-3 prostate) of 74.5 µM. It also gave a GI50 (RPMI-8226 leukemia) of 10.8 µM, a TGI (RPMI-8226 leukemia) of 28.5 µM and a GI50 (RXF 393 renal) of 9.37 µM. It also gave a TGI (RXF 393 renal) of 23.2 µM, a GI50 (SF-268 CNS) of 12.7 µM and a TGI (SF-268 CNS) of 28.5 µM. For the same compound, the GI50 (SF-295 CNS) was over 82.5 µM, the TGI (SF-295 CNS) was over 82.5 µM and the GI50 (SF-539 CNS) was 13.3 µM. It also gave a TGI (SF-539 CNS) of 25 µM, a GI50 (SK-MEL-2 melanoma) of over 82.5 µM and a TGI (SK-MEL-2 melanoma) of over 82.5 µM. The GI50 (SK-MEL-28 melanoma) was over 82.5 µM, the TGI (SK-MEL-28 melanoma) was over 82.5 µM and the GI50 (SK-MEL-5 melanoma) was 15.1 µM. The TGI (SK-MEL-5 melanoma) was 28.7 µM, the GI50 (SK-OV-3 ovarian) was 15.5 µM and the TGI (SK-OV-3 ovarian) was 33 µM. For the same compound, the GI50 (SN12C renal) was 12.7 µM, the TGI (SN12C renal) was 29.8 µM and the GI50 (SNB-19 CNS) was 15.7 µM. It also gave a TGI (SNB-19 CNS) of 40.8 µM, a GI50 (SNB-75 CNS) of 8.39 µM and a TGI (SNB-75 CNS) of 19.1 µM. It also gave a GI50 (SR leukemia) of 9.79 µM, a TGI (SR leukemia) of 26.7 µM and a GI50 (SW-620 colon) of 14.9 µM. For the same compound, the TGI (SW-620 colon) was 33.2 µM, the GI50 (T-47D breast) was 15.9 µM and the TGI (T-47D breast) was 69.8 µM. It also gave a GI50 (TK-10 renal) of 21.8 µM, a TGI (TK-10 renal) of over 82.5 µM and a GI50 (U251 CNS) of 15.1 µM. For the same compound, the TGI (U251 CNS) was 35.2 µM, the GI50 (UACC-257 melanoma) was over 82.5 µM and the TGI (UACC-257 melanoma) was over 82.5 µM. The GI50 (UACC-62 melanoma) was 17.4 µM, the TGI (UACC-62 melanoma) was 61 µM and the GI50 (UO-31 renal) was 12.2 µM. The TGI (UO-31 renal) was 23.3 µM.
